Literature values in patent publication US8178083B2, “Treatment of optic neuritis” (Ares Trading, S.A., priority 2005, dated 2012).

System: patients with acute isolated unilateral optic neuritis

C[C@]12C=CC(=O)C=C1CC[C@@H]1[C@@H]2C(=O)C[C@@]2(C)[C@H]1CC[C@]2(O)C(=O)CO [prednisone]
risk of a new optic neuritis attack in the fellow eye versus placebo-treated group (oral prednisone 1 mg/kg per day for 14 days): more than double | patients who developed new bouts of optic neuritis (in either the affected or fellow eye) (within 2 years of follow-up): 30%
